Assay [1] concerns Balb/c mice sensitized with OVA. Kind of assay: OVA allergic asthma model, intranasal application of test substance. The class given is in vivo, mouse. The note with it: for Bronchoalveolar lavage (BAL) eosinophil numbers / AHR to increasing doses of methacholine: 12 intranasal applications d0-d26, analysis day 28; for Bronchoalveolar lavage (BAL) eosinophil numbers: FIG. 10; for AHR to increasing doses of methacholine: FlexiVent, FIG. 11. How it is done:
Control mice were sham sensitized to PBS. Error bars reflect SEM. P values reflect one-way ANOVA, *: p value<0.05, **: p value<0.01; (FA: (E)-12-oxoheptadec-10-enaic acid).
Control mice were sham sensitized to PBS. Error bars reflect SEM. (FA: (E)-12-oxoheptadec-10-enaic acid).
Balb/c mice were first be sensitized with 10 μg OVA in Alum i.p. on day 0, 7 and 14. Three consecutive intranasal challenges with 100 μg OVA on day 25, 26 and 27, with analysis being undertaken on day 28, follows. From d0-d26 there were 12 consecutive intranasal applications of test substance. Asthma pathogenesis was assessed using methacholine lung function challenge to examine AHR as undertaken in allergic asthma patients. Furthermore, pathological manifestations such as eosinophilia was assessed. • Sensitzation: 10 μg valbumin (OVA Grade VI, Sigma, Stainheim, D) dissolved in 100 μl PBS on days 0, 7 and 14 of the assay protocol together with 100 μl (1 mg) of the adjuvant aluminium hydroxyde (Al(OH)3) (Inject Alum, Pierce, USA). • Challenge: OVA Grade V in 100 μg/mouse in 25 μl (concentration: 4 mg/ml)
Eosiniphilnumbers in the Bronchoalveolar lavage (BAL) are shown in FIG. 10. • Airway Hyperresponsivenes (AHR): Dynamic resistance and compliance (in response to increasing doses of MCh) FlexiVent results are shown in FIG. 11.

For another assay, the target named is T1, 15N-bOBP (Bos taurus, UniProt P07435).
T1 construct: 6xHis (N, cleaved yes); Thioredoxin (Trx) (N, cleaved yes); TEV cleavage site (N, cleaved yes); made in house; host or cells: E. coli BL21 (M9 minimal medium for 15N labelling)
T1 sequence (P07435 with tags, fused parts or gaps): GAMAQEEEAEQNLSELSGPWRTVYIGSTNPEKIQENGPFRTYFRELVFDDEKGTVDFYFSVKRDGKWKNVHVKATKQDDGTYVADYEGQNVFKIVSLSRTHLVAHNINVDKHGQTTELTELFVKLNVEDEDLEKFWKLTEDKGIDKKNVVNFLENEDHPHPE
Kind of assay: NMR binding studies (1H,15N-HSQC titration). The note with it: 200 μM 15N-bOBP alone or in presence of 1 mM and 2 mM fatty acid, pH 6.5, 25° C. Here is the method: NMR binding studies. Overlay of ^1H, […] spectra of ^15N-bOBP alone and in presence of 5- and 10-fold excess of (E)-12-oxoheptadec-10-enoic acid. Arrow and inlet show CSP of exemplary peak. Arrows and inlets show CSP of exemplary peaks.
NMR measurements were performed in 3 mm tubes at 25° C. on a Bruker Avance III spectrometer operating at 600 MHz ^1H frequencies using H/N/C triple-resonance cryogenic probes. To confirm fatty acid binding, two-dimensional ^1H, ^15N heteronuclear single quantum correlation (HSQC) spectra were recorded of 200 μM ^15N-bOBP in 20 mM phosphate buffer pH 6.5, 50 mM NaCl, 1 mM β-mercaptoethanol and 10% (v/v) D20 alone or in presence of 1 mM and 2 mM fatty acid.

In another assay the test system is 16HBE cells. In words: TEER assay, epithelial barrier function. The class given is cell-based. As to conditions: 20 μg/ml, 24 hours after treatment; compared with cow SDE at 200 μg/ml; FIG. 6. Here is the method:
TEER Assay: 16HBE: untreated cells; Farm dust (Hec 20)=Cow shed dust extract>10 kDa autoclaved, 200 μg/ml; Bosd2+FA=His-Trx-Bos d2+(E)-12-oxoheptadec-10-enaic acid, 20 μg/ml; OBP+FA=bOBP+(E)-12-oxoheptadec-10-enaic acid, 20 μg/ml.
To examine the effect of the Lipoproteins Bos d2+FA and OBP+FA on the epithelial barrier function as measured by transepithelial electrical resistance (TEER). 16HBE (100.000 (1×10*5)) cells were seeded on transwell inserts in […] medium (MEM with Earle's salt, 10% FBS (during cultivation only, during assay no FBS), 1% L-Glutamine, 1% Penicillin/Streptomycin). After 24 hours of culture, cells were treated with the indicated compounds, and 24 hours after treatment, TEER values were determined using an EVOM2 epithelial voltohmmeter (World Precision Instruments). Cow SDE was used at 200 μg/ml, all other compounds were used at 20 μg/ml.

In assay [2] the test system is OVA pulsed BMDCs cocultured with OT-II CD4 T cells. Kind of assay: DC/T-cell interaction assay. The format is cell-based, mouse. As to conditions: pre-treatment of BMDCs (two treatments), LPS stimulation, FIG. 8. How it is done: Effect of lipoprotein candidates on DC T-cell interaction: OVA pulsed BMDCs enhanced OT-II CD4 T cell number (Medium), which was prevented by pre-treatment of BMDCs with, Bos d2+FA and OPB+FA. CD4+ count: For each sample 10400 counting beads were added to tube and 5000 beads were counted for recording. CD4+ count indicates the amount of CD4+ cells contained in the volume needed to count 5000 beads. (FA: (E)-12-oxoheptadec-10-enaic acid).
DCs are professional antigen presenting cells crucial for the priming of CD4 T cells in asthma and allergy. The mouse primary bone marrow derived DCs (BMDCs) were utilized to evaluate the ability of the test substances to modulate their activation. DC activation is monitored their ability to regulate the differentiation and proliferation of OVA-specific CD4 T cells (OT-II) following DC pulsing with the OVA peptide.
For this assay, bone marrow derived DCs are isolated from C57B16 mice and put into culture. […]
Isolate bone marrow from wild-type C57BL/6 mouse and seed cells in 10 ml Petri dishes in 10 ml volume (2 million cells/dish) containing 20 ng/ml rmGM-CSF. […] Cells were then collected and counted with the help of counting beads and seeded in V bottom 96 well plates (10000 cells/well) and pulsed with OVA peptide (323-339) for 3 hours. […] 20000 stained T Cells were cocultured with DCs for […], and T Cells were then analyzed with flow cytometry.

Another assay concerns the target T2, human TLR2 (Homo sapiens, UniProt O60603).
T2 construct: host or cells: HEK293 (HEK-Blue-hTLR2)
Kind of assay: Activation of TLR-2, NFkB induction in HEK-Blue-hTLR2 cells (SEAP reporter). The format is cell-based. The note with it: human TLR2 transfected HEK cells; positive control Pam3CSK4; FIG. 5. An excerpt:
NKfB induction in HEK-hTLR2. Dotted line: PBS/DMSO (negative control); Pam3CSK4=positive control; Farm dust (Hec 20)=Cow shed dust extract>10 kDa autoclaved; Bosd2+FA=His-Trx-Bos d2+€-12-oxoheptadec-10-enaic acid; OBP+FA=bOBP+€-12-oxoheptadec-10-enaic acid; OBP=bOBP; FA=€-12-oxoheptadec-10-enaic acid.
HEK-Blue™-hTLR2 cells (InvivoGen) are obtained by co-transfection of the human TLR2 and SEAP (secreted embryonic alkaline phosphatase) genes into HEK293 cells. The SEAP reporter gene is placed under the control of the IFN-β minimal promoter fused to five NF-κB and AP-1-binding sites. Additionally, the CD14 co-receptor gene was transfected into these cells to enhance the TLR2 response. Stimulation with a TLR2 ligand activates NF-κB and AP-1, which in turn induce the production of SEAP. Levels of SEAP are determined with HEK-Blue™ Detection, a cell culture medium that allows for real-time detection of SEAP.

Four molecules from US20240316187A1, “PROTEINS IDENTIFIED FROM BARN DUST EXTRACT FOR THE PREVENTION AND TREATMENT OF DISEASES” (Helmholtz Zentrum München - Deutsches Forschungszentrum für …, priority 2021, published 2024) can be followed below.

“Also recorded” adds a separate entry of the source.

T2 sequence (O60603 21-784): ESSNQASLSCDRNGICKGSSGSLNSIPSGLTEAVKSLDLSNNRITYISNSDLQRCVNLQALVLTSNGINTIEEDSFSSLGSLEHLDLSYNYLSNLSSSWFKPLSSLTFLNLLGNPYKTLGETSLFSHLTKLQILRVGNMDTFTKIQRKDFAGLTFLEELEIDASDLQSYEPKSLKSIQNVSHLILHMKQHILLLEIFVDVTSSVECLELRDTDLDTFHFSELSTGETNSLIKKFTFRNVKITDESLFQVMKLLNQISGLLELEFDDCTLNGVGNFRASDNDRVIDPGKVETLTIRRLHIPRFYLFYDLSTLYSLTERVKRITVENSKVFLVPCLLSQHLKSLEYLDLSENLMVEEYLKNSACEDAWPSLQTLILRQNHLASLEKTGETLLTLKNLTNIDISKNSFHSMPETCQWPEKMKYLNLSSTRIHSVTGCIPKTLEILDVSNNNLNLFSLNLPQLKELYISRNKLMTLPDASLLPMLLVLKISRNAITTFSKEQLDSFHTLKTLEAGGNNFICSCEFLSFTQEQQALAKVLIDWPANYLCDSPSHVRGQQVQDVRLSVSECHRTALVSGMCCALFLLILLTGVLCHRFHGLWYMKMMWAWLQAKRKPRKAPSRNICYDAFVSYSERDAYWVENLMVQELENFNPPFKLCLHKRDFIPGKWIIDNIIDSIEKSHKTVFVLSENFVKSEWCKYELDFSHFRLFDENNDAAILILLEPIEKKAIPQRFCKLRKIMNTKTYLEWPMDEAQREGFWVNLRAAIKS

In the case of `CCCCCC(=O)/C=C/CCCCCCCCC(=O)O` [FA, (E)-12-oxoheptadec-10-enoic acid], in assay [1], the “Bronchoalveolar lavage (BAL) eosinophil numbers” value (from here on “Bronchoalveolar lavage”) is “does not have an effect” and the “AHR to increasing doses of methacholine” value is given as “an effect on AHR”. The “chemical shift perturbations (CSP) in 1H,15N-HSQC spectra” value on 15N-bOBP is recorded as “chemical shift perturbations (CSP) which is indicative for ligand binding”.
Take “Bos d2+FA: Lipoprotein complex of His-Trx-Bos d2 with (E)-12-oxoheptadec-10-enoic acid”: the “transepithelial electrical resistance (TEER)” value in the assay with 16HBE cells is listed as “stronger effect, at much lower concentration”. In assay [2], the “OT-II CD4 T cell number (CD4+ count)” value is “prevented”. The “NFkB induction in HEK-hTLR2 (TLR2 activation)” value (“NFkB induction in HEK-hTLR2” for short) with human TLR2 is recorded as “even stronger effect than the cow SDE”.
With “OBP+FA: Lipoprotein complex of bOBP incubated with 5 fold molar excess of (E)-12-oxoheptadec-10-enoic acid, dialysed”, the “transepithelial electrical resistance (TEER)” value in the assay on 16HBE cells is on record as “stronger effect, at much lower concentration”. Besides, the “OT-II CD4 T cell number (CD4+ count)” value in assay [2] is recorded as “prevented”. Further, in the assay with human TLR2, the “NFkB induction in HEK-hTLR2” value was “even stronger effect than the cow SDE”. Besides, in assay [1], the “Bronchoalveolar lavage” value was “prevented allergic asthma” and the “AHR to increasing doses of methacholine” value is “significant effect; also recorded: prevented allergic asthma”. In addition, the “AHR effect compared with OBP alone” value in assay [1] (same model as E7) was “slightly better than for OBP alone”.

B1: OBP: Recombinant bovine odorant-binding protein, lipocalin family, without ligand (protein, listed as Bos taurus)
chain: AQEEEAEQNLSELSGPWRTVYIGSTNPEKIQENGPFRTYFRELVFDDEKGTVDFYFSVKRDGKWKNVHVKATKQDDGTYVADYEGQNVFKIVSLSRTHLVAHNINVDKHGQTTELTELFVKLNVEDEDLEKFWKLTEDKGIDKKNVVNFLENEDHPHPE
On to B1, for which the “NFkB induction in HEK-hTLR2” value in the assay with human TLR2 is “had an effect as well, but higher concentrations are needed”. In assay [1], the “Bronchoalveolar lavage” value is on record as “prevented allergic asthma” and the “AHR to increasing doses of methacholine” value is given as “significant effect; also recorded: prevented allergic asthma”.
